The text below walks through data of US20030206876A1, “Composition” (priority 2000, published 2003).

The structures appear in SMILES notation.

This assay concerns oral bacteria (production of volatile sulfur compounds from cysteine). As to the kind of experiment: cysteine challenge method for halitosis (oral malodor) efficacy, VSC response measured with Halimeter. Type of assay: in vivo. As to the method: The ability of low doses of chlorhexidine to combat halitosis (oral malodor) was assessed using the cysteine challenge method. This measures the ability of oral bacteria to produce volatile sulfur compounds (VSC), the major odor component of oral malodor, from cysteine and is correlated with organoleptic evaluation by odor judges. Testing consists of rinsing the mouth with 5 ml of 6 mM cysteine for 30 seconds and measuring the resulting the VSC response (mainly hydrogen sulphide) with a chemical sensor instrument such as the Halimeter. Cysteine challenge testing consisted of the obtaining of an initial baseline VSC determination, the subsequent introduction of the cysteine challenge substrate, measuring the VSC response over a 20 minute period, introducing the test rinse and at set times thereafter, repeating the cysteine challenge for up to 7 hours. Inhibition was assessed quantitatively by the degree of inhibition of VSC production from cysteine by the test agent, chlorhexidine digluconate, as compared to VSC production from cysteine at baseline. Duration of the inhibition was assessed as the time it takes for VSC production with successive cysteine challenges to return to that seen at baseline.

For the compound `[H]/N=C(\N/C(=N/[H])NCCCCCCNC(=N)NC(=N)Nc1ccc(Cl)cc1)Nc1ccc(Cl)cc1` [chlorhexidine digluconate], under “chlorhexidine digluconate 0.020, 0.015, 0.0125 and 0.010% by weight of the composition”, the “inhibition of production of VSCs at lower concentrations” value is listed as “Similarly advantageous results”. Further, the “time after the rinse at which most inhibition of VSC production was seen” value (mouthrinse, chlorhexidine digluconate 0.025% (v/v)) is “two”. For the setting “mouthrinse, chlorhexidine digluconate 0.025% (v/v), cysteine challenge 5 ml of 6 mM cysteine for 30 seconds”, the “inhibition of production of VSCs from cysteine compared to baseline” value is reported as “significantly inhibit”. Also, the “duration of the inhibition of VSC production from the initial rinse (gradually decreasing levels)” value (mouthrinse, chlorhexidine digluconate 0.025% (v/v), successive cysteine challenges for up to 7 hours) is “over 7 hours”.
